Results: PubChem BioAssay AID1549 (Sanford-Burnham Center for Chemical Genomics, 2009)
Active and inactive are the calls of the source. No rule for the calls is given here.

Target: Influenza A virus M2 proton channel (A/TW/4845/1999 H1N1)
Experiment: NMR binding screen, influenza A virus M2 proton channel, Kd (AID 1549)
Conditions: M2 protein

Compound | Kd
CCOC(=O)c1cc(C)n(-n2cnnc2)c1C | > 4 mM (inactive)
O=C(/C=C/c1ccco1)NC1=NCCS1 | > 4 mM (inactive)
OCc1ccc2c(c1)OCCO2 | > 4 mM (inactive)
Cn1cccc1C=C1C(=O)NC(=S)NC1=O | > 4 mM (inactive)
CC(C)c1nnc(N)s1 | > 4 mM (inactive)
O=C(c1ccncc1)N1CCN(C(=O)c2ccncc2)CC1 | > 4 mM (inactive)
COC(=O)c1ccc(C(=S)N2CCOCC2)cc1 | > 4 mM (inactive)
Cn1c(NCc2ccco2)nc2ccccc21 | > 4 mM (inactive)
O=c1c2ccccc2oc2ccc(O)cc12 | > 4 mM (inactive)
COC(=O)CSc1nnc(-c2ccc(C(=O)O)cc2)o1 | > 4 mM (inactive)
O=C(O)c1cn(-c2ccccc2)nc1-c1cccnc1 | > 4 mM (inactive)
COCC(=O)Nc1ccc(F)cc1F | > 4 mM (inactive)
COc1ccc2c(c1)OC/C(=C/c1ccc(OC)c(OC)c1)C2=O | > 4 mM (inactive)
CC(C(N)=O)N1C(=O)c2ccccc2C1=O (stereo not drawn) | > 4 mM (inactive)
CN(C)S(=O)(=O)c1ccc(N2CCOCC2)nc1 | > 4 mM (inactive)
CSc1ccccc1C(=O)N1CCOCC1 | > 4 mM (inactive)
Nc1cc(=O)[nH]c(=S)n1-c1cccc(C(F)(F)F)c1 | > 4 mM (inactive)
OC[C@H]1O[C@@](CO)(O[C@@H]2O[C@H](CO)[C@@H](O)[C@H](O)[C@H]2O)[C@@H](O[C@@H]2O[C@H](CO)[C@@H](O)[C@H](O)[C@H]2O)[C@@H]1O | > 4 mM (inactive)
CS(C)=C1C(=O)NC(=O)N(c2ccccc2)C1=O | > 4 mM (inactive)
c1ccc(C2NCCc3[nH]cnc32)cc1 (stereo not drawn) | > 4 mM (inactive)
O=C1CN(C(=O)c2ccccc2F)c2ccccc2N1 | > 4 mM (inactive)
CC(=O)Nc1cnn(Cc2ccc(Br)cc2)c1 | > 4 mM (inactive)
C[C@H]1CCCC(=O)CCC/C=C/c2cc(O)cc(O)c2C(=O)O1 | > 4 mM (inactive)
NC(=O)C1CCN(c2ccc(Cl)nn2)CC1 | > 4 mM (inactive)

Compound | Kd
O=c1c2ccccc2nc2n1CCCCN2 | > 4 mM (inactive)
CC(C)n1c(-c2ccncc2)n[nH]c1=S | > 4 mM (inactive)
O=C(c1cccnc1Cl)N1CCOCC1 | > 4 mM (inactive)
Cc1noc(C)c1C(=O)N1CCc2ccccc21 | > 4 mM (inactive)
CC(=O)c1cc(C(N)=O)c(=S)[nH]c1C | > 4 mM (inactive)
CN1C(=O)c2ccc(C(=O)NCc3ccccc3)cc2C1=O | > 4 mM (inactive)
COCC(=O)Nc1cc2c3c(c1)CCN3C(=O)CC2 | > 4 mM (inactive)
OC1CCN(Cc2ccc[nH]2)CC1 | > 4 mM (inactive)
CCNC(CC(=O)Nc1ccc(F)cc1)C(=O)O (stereo not drawn) | > 4 mM (inactive)
Cc1[nH]c2ccccc2c1CN(C)C | > 4 mM (inactive)
CC(C)CC(=O)NC1CCSC1=O (stereo not drawn) | > 4 mM (inactive)
COC(=O)c1cccc(C(F)(F)F)c1 | > 4 mM (inactive)
COCc1cc(C)nc2sc(C(=O)OC)c(N)c12 | > 4 mM (inactive)
OCC1CCCN2CCCCC12 (stereo not drawn) | > 4 mM (inactive)
NCCc1ccc(S(N)(=O)=O)cc1 | > 4 mM (inactive)
O=C(/C=C/c1ccccc1)c1ccc(O[C@@H]2O[C@H](CO)[C@@H](O)[C@H](O)[C@H]2O)cc1O | > 4 mM (inactive)
CC(C)(C)NC(=O)CN1C(=O)c2ccccc2S1(=O)=O | > 4 mM (inactive)
CC(=O)CC1(O)C(=O)Nc2ccc(Br)cc21 (stereo not drawn) | > 4 mM (inactive)
CC(=O)Nc1nc2c(s1)C(=O)NCCC2 | > 4 mM (inactive)
CCNCC(O)c1ccc([N+](=O)[O-])cc1 (stereo not drawn) | > 4 mM (inactive)
Cc1ccc(C(=O)N2CCOCC2)cc1Cl | > 4 mM (inactive)
O=C(OC[C@H]1O[C@H](OC(=O)c2cc(O)c(O)c(OC(=O)c3cc(O)c(O)c(O)c3)c2)[C@H](OC(=O)c2cc(O)c(O)c(OC(=O)c3cc(O)c(O)c(O)c3)c2)[C@@H](OC(=O)c2cc(O)c(O)c(OC(=O)c3cc(O)c(O)c(O)c3)c2)[C@@H]1OC(=O)c1cc(O)c(O)c(OC(=O)c2cc(O)c(O)c(O)c2)c1)c1cc(O)c(O)c(OC(=O)c2cc(O)c(O)c(O)c2)c1 | > 4 mM (inactive)
Cc1cc(C(=O)NCc2ccco2)cs1 | > 4 mM (inactive)
O=c1cc(-c2ccc(O)cc2)oc2cc(O[C@@H]3O[C@H](CO)[C@@H](O)[C@H](O)[C@H]3O[C@@H]3OC[C@](O)(CO)[C@H]3O)cc(O)c12 | > 4 mM (inactive)

Compound | Kd
CC(=O)O[C@H]1CCC2(C)C3=C(CCC2C1(C)C)[C@@]1(C)CC[C@@H](C(C)CCC=C(C)C)[C@]1(C)CC3 (stereo partly drawn) | > 4 mM (inactive)
C=C[C@H]1CN2CC[C@H]1C[C@H]2[C@H](O)c1ccnc2ccccc12 | > 4 mM (inactive)
CSc1ccccc1NC(=O)c1ccncc1 | > 4 mM (inactive)
CCP(=O)(CC)c1cccc(C)c1 | > 4 mM (inactive)
CCOC(=O)N1CCCC1c1cccnc1 (stereo not drawn) | > 4 mM (inactive)
Nc1cc(=O)[nH]c(SCC(=O)Nc2nccs2)n1 | > 4 mM (inactive)
O=S1(=O)CCC(NC(=S)Nc2ccc(O)cc2)C1 (stereo not drawn) | > 4 mM (inactive)
CC(=O)c1c(C)n(O)c2ccc3nonc3c12 | > 4 mM (inactive)
Cc1ccccc1NC(=O)CC1NCCNC1=O (stereo not drawn) | > 4 mM (inactive)
O=C1NCC(=O)N2CCc3ccccc3C12 (stereo not drawn) | > 4 mM (inactive)
C=CC(C1=CC(=O)C(OC)=CC1=O)c1ccc(O)cc1 (stereo not drawn) | > 4 mM (inactive)
COc1c(O)cc2oc3cc(O)c(CC=C(C)C)c(O)c3c(=O)c2c1CC=C(C)C | > 4 mM (inactive)
O=C(O)C1CC(=O)N(C2Cc3ccccc3C2)C1 (stereo not drawn) | > 4 mM (inactive)
Nc1ccc(F)cc1F | > 4 mM (inactive)
c1ccc(-c2nc3ccccc3nc2-c2ccccn2)nc1 | > 4 mM (inactive)
CC(C)(C)C(=O)Nc1nnc(SCC(N)=O)s1 | > 4 mM (inactive)
O=C1CCCC2C3CC(CN12)[C@@H]1CCCCN1C3 (stereo partly drawn) | > 4 mM (inactive)
CCC1(CC)C(=O)NC(=O)N=C1N | > 4 mM (inactive)
Nc1nc(-c2ccncc2)cs1 | > 4 mM (inactive)
NS(=O)(=O)c1ccc(NC(=O)C2CC2)cc1 | > 4 mM (inactive)
CC12CN(CC#N)CC(C)(CN(CC#N)C1)C2=O | > 4 mM (inactive)
Nc1nc(-c2nc3ccccc3[nH]2)cs1 | > 4 mM (inactive)
O=C1c2ccccc2C(=O)N1CCc1ccccn1 | > 4 mM (inactive)
Cc1cc2cc3c(C)cc(=O)oc3c(C)c2o1 | > 4 mM (inactive)

Compound | Kd
Cc1cccc(-c2nnc(-c3ccc(N)cc3)o2)c1 | > 4 mM (inactive)
CC(=O)Nc1cccc(NC(=O)c2ccco2)c1 | > 4 mM (inactive)
Fc1ccc(F)c(CN2CCN(c3ncccn3)CC2)c1 | > 4 mM (inactive)
O=C(NN1C(=O)c2ccccc2C1=O)c1cccs1 | > 4 mM (inactive)
Cc1n[nH]c(=S)n(/N=C/c2ccccc2)c1=O | > 4 mM (inactive)
O=C(O)CCC(=O)Nc1ccccc1F | > 4 mM (inactive)
C/C(O)=c1/sc2cc(C)nc(=N)n2c1=O | > 4 mM (inactive)
O=c1c2ccccc2nc(-c2ccco2)n1-c1nccs1 | > 4 mM (inactive)
OCc1cc(F)cc2c1OCOC2 | > 4 mM (inactive)
NC(=O)CC1NC(=O)c2ccccc21 (stereo not drawn) | > 4 mM (inactive)
O=C(c1ccncc1)N1CCN(C(=O)c2ccco2)CC1 | > 4 mM (inactive)
NCC(=O)c1ccccc1 | > 4 mM (inactive)
O=NN1C(=O)c2ccccc2C1=O | > 4 mM (inactive)
c1ccc(-c2noc(-c3ccco3)n2)nc1 | > 4 mM (inactive)
Cc1oc(-c2ccccc2)nc1CC(=O)O | > 4 mM (inactive)
NCc1ccc2occc2c1 | > 4 mM (inactive)
Nc1ccc2c(c1)C(=O)OC2 | > 4 mM (inactive)
CC(=O)Nc1ccc(Cl)c(C(N)=O)c1 | > 4 mM (inactive)
COCc1cc(=O)oc2cc(O)c(Cl)cc12 | > 4 mM (inactive)
Cc1n[nH]c(=O)c2ncn(C)c12 | > 4 mM (inactive)
OCC1CCN(c2ncccn2)CC1 | > 4 mM (inactive)
O=C1CCCC(=O)N1Cc1ccco1 | > 4 mM (inactive)
COc1cc(OC)c2c(c1Cl)OC1(C2=O)C(O)=CC(=O)CC1C (stereo not drawn) | > 4 mM (inactive)
O=C1CSC(=Nc2ccc(C(=O)O)cc2)N1 | > 4 mM (inactive)

Compound | Kd
OCc1c[nH]c2ccccc12 | > 4 mM (inactive)
OCc1ccc(Oc2ccccc2)nc1 | > 4 mM (inactive)
O=C1NC(=Nc2ccc(O)cc2)S/C1=C/c1ccco1 | > 4 mM (inactive)
O=C(O)c1ccc2nsnc2c1 | > 4 mM (inactive)
CCOC(=O)c1csc(C)n1 | > 4 mM (inactive)
CCn1nnc(NC(=O)c2cc3ccccc3o2)n1 | > 4 mM (inactive)
COC(=O)C1=C(C)N(Cc2ccco2)C(=O)C1 | > 4 mM (inactive)
COc1cc([C@@H]2c3cc4c(c(O)c3C[C@H]3COC(=O)[C@@H]32)OCO4)cc(OC)c1OC | > 4 mM (inactive)
CC1=CC(=O)NC2C=CC=CC12 (stereo not drawn) | > 4 mM (inactive)
NC(=O)c1oc2ccccc2c1N | > 4 mM (inactive)
c1ccc(-c2noc(-c3cccnc3)n2)nc1 | > 4 mM (inactive)
OCC12COC3c4ccccc4C(OC1)N32 (stereo not drawn) | > 4 mM (inactive)
O=C(Nc1ccon1)c1csc2c1CCCC2 | > 4 mM (inactive)
O=C(Oc1ccc2c(c1)OCC2=O)c1ccccc1 | > 4 mM (inactive)
O=C(/C=C/C=C/c1ccc2c(c1)OCO2)N1CCCCC1 | > 4 mM (inactive)
CCOc1ccc(C(=O)c2ccc(OC)c(O)c2O)cc1 | > 4 mM (inactive)
Cc1ccc(S(=O)(=O)/N=C2\NC(=O)CS2)cc1 | > 4 mM (inactive)
COC(=O)CC1=Nc2ccccc2NC(=O)C1 | > 4 mM (inactive)
CC1=CC(=O)CC(C)(C)C1(O)/C=C/C(C)=C\C(=O)O (stereo not drawn) | > 4 mM (inactive)
Cc1cc(C(=O)Nc2ccc3c(c2)OCO3)cs1 | > 4 mM (inactive)
Nc1cccnc1N1CCOCC1 | > 4 mM (inactive)
O=C(O)c1c[nH]c2ccccc12 | > 4 mM (inactive)
